# Patent US10442763B2, “EBNA1 inhibitors and methods using same” (priority 2015, dated 2019)
# Target: T1, His-EBNA1 (DNA binding domain of EBNA1, amino acids 459-607) (Epstein-Barr virus, UniProt P03211)
# T1 construct: made in house; host or cells: E. coli
# Assay: Inhibition of 5'-biotin-oPL4624 binding to His-EBNA1 using Alpha Screen technology
# Experimental: Inhibition of 5′-Biotin-oPL4624 Binding to his-EBNA1 Using Alpha Screen Technology
# Assays were performed using the DNA binding domain of EBNA1 (amino acids 459-607), which was His-tagged (His-EBNA1) and the self-complementary biotinylated (bt) oligonucleotide with the sequence 5′-bt-[…]-ATGCTACCC-3′ (bt-oPL4624; or 5′-bt-SEQ ID NO: 1). The protein was expressed in E. coli and purified according to Barwell, et al., 1995, J Biol Chem. 270:20556-9.). The bt-oPL4624 oligonucleotide was purchased from Integrated DNA Technologies, Inc (IDT). AlphaScreen donor, acceptor beads and white, opaque 384-well assay plates were purchased from PerkinElmer, Inc.
# Assays contained 15 nM His-EBNA1, 0.2 nM bt-oPL4624, 5 μg/mL AlphaScreen streptavidin donor beads and nickel chelate acceptor beads, and a series of concentrations of test compound ranging from 3.2 nM to 100 μM in a total volume of 40 μL assay buffer (25 mM Tris, pH 7.2, 160 mM NaCl, 1 mM MgCl2). His-EBNA1 (30 nM) and bt-oPL4624 (0.4 nM) were preincubated with 10 μg/mL nickel chelate AlphaScreen acceptor bead, or 10 μg/mL streptavidin AlphaScreen donor bead, respectively, for 30 minutes at room temperature in assay buffer. Twenty microliters of His-EBNA1/acceptor bead mix and bt-oPL4624/donor bead mix were transferred to assay plates containing 0.4 μL of 1:3 serial dilutions of test compounds previously prepared in DMSO at concentrations ranging from 0.32 μM to 10 mM. Non-specific binding was determined with 5 μg/mL AlphaScreen acceptor bead in the absence of His-EBNA1. After 2 hr incubation at room temperature, the AlphaScreen signal was measured on the Envision plate reader (PerkinElmer, Inc.) at 680 nm excitation and 570 nm emission. Inhibition values at each concentration of test compound were determined by setting 100% equal to raw data values in the absence of EBNA1 and 0% equal to the raw data values in the presence of EBNA1. Nonlinear regression fits of the inhibition values to a one-site dose-response equation were performed using GraphPad Prism.
# T1 sequence (P03211 459-607): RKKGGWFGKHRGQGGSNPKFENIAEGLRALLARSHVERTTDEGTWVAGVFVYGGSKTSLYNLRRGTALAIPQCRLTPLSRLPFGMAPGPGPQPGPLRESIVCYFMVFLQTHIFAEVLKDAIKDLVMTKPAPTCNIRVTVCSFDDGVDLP
row,Structure (SMILES),IC50
1,O=C(O)c1cccc(C#Cc2ccc3ccn(CCN4CCOCC4)c3c2)c1-c1ccc2cc[nH]c2c1 [Entry 1],10 to 100 µM
2,CC(=O)Nc1cc(C#Cc2cccc(C(=O)O)c2-c2ccc3cc[nH]c3c2)ccc1OC1CCOCC1 [Entry 2],10 to 100 µM
3,CC(=O)N1C2CCC1CC(c1ccc(C#Cc3cccc(C(=O)O)c3-c3ccc4cc[nH]c4c3)cc1)C2 (stereo not drawn) [Entry 3],10 to 100 µM
4,CN(C)CCn1ccc2cc(C#Cc3cccc(C(=O)O)c3-c3ccc4cc[nH]c4c3)cnc21 [Entry 4],1 to 10 µM
5,CN(C)CCCn1ccc2cc(C#Cc3cccc(C(=O)O)c3-c3ccc4cc[nH]c4c3)cnc21 [Entry 5],10 to 100 µM
6,O=C(O)c1cccc(C#Cc2cnc3c(ccn3CCCN3CCOCC3)c2)c1-c1ccc2cc[nH]c2c1 [Entry 6],1 to 10 µM
7,O=C(O)c1cccc(C#Cc2cn(CCCN3CCOCC3)c3ncccc23)c1-c1ccc2cc[nH]c2c1 [Entry 7],10 to 100 µM
8,O=C(O)c1cccc(C#Cc2cnc3c(ccn3CCN3CCOCC3)c2)c1-c1ccc2cc[nH]c2c1 [Entry 8],1 to 10 µM
9,O=C(O)c1cccc(C#Cc2cn(CCN3CCOCC3)c3ncccc23)c1-c1ccc2cc[nH]c2c1 [Entry 10],10 to 100 µM
10,CN(C)CCCn1cc(C#Cc2cccc(C(=O)O)c2-c2ccc3cc[nH]c3c2)c2cccnc21 [Entry 11],100 to 1000 µM
11,O=C(O)c1cccc(C#Cc2cnc3c(ccn3CCN3CCS(=O)(=O)CC3)c2)c1-c1ccc2cc[nH]c2c1 [Entry 12],10 to 100 µM
12,O=C(O)c1cccc(C#Cc2ccc3c(ccn3CCN3CCOCC3)c2)c1-c1ccc2cc[nH]c2c1 [Entry 13],10 to 100 µM
13,O=C(O)c1cccc(C#Cc2ccc3c(ccn3CCCN3CCOCC3)c2)c1-c1ccc2cc[nH]c2c1 [Entry 14],10 to 100 µM
14,O=C(O)c1cccc(C#Cc2ccc3ccn(CCCN4CCOCC4)c3c2)c1-c1ccc2cc[nH]c2c1 [Entry 15],10 to 100 µM
15,O=C(O)c1cccc(C#Cc2cnc3c(c2)CCCN3)c1-c1ccc2cc[nH]c2c1 [Entry 16],1 to 10 µM
16,O=C(O)c1cccc(C#Cc2cnc3c(ccn3CC3CCOCC3)c2)c1-c1ccc2cc[nH]c2c1 [Entry 17],1 to 10 µM
17,O=C(O)c1cccc(C#Cc2ccc3c(ccn3CC3CCOCC3)c2)c1-c1ccc2cc[nH]c2c1 [Entry 18],1 to 10 µM
18,CS(=O)(=O)N1CCC(Cn2ccc3cc(C#Cc4cccc(C(=O)O)c4-c4ccc5cc[nH]c5c4)ccc32)CC1 [Entry 19],1 to 10 µM
19,CS(=O)(=O)N1CCC(Cn2ccc3cc(C#Cc4cccc(C(=O)O)c4-c4ccc5cc[nH]c5c4)cnc32)CC1 [Entry 20],1 to 10 µM
20,O=C(O)c1cccc(C#Cc2cnc3c(ccn3CC3CCS(=O)(=O)CC3)c2)c1-c1ccc2cc[nH]c2c1 [Entry 21],1 to 10 µM
21,O=C(O)c1cccc(C#Cc2ccc3c(ccn3CCN3CCS(=O)(=O)CC3)c2)c1-c1ccc2cc[nH]c2c1 [Entry 22],1 to 10 µM

row,Structure (SMILES),IC50
1,O=C(O)c1cccc(C#Cc2ccc3ccn(CCN4CCS(=O)(=O)CC4)c3c2)c1-c1ccc2cc[nH]c2c1 [Entry 23],10 to 100 µM
2,O=C(O)c1cccc(C#Cc2ccc3c(ccn3CCCN3CCS(=O)(=O)CC3)c2)c1-c1ccc2cc[nH]c2c1 [Entry 24],10 to 100 µM
3,O=C(O)c1cccc(C#Cc2ccc3ccn(CCCN4CCS(=O)(=O)CC4)c3c2)c1-c1ccc2cc[nH]c2c1 [Entry 25],1 to 10 µM
4,O=C(O)c1cccc(C#Cc2ccc(COC3CCS(=O)(=O)CC3)cc2)c1-c1ccc2cc[nH]c2c1 [Entry 26],10 to 100 µM
5,O=C(O)c1cccc(C#Cc2ccc(COC3CCOCC3)cc2)c1-c1ccc2cc[nH]c2c1 [Entry 27],10 to 100 µM
6,CC(C)OCc1ccc(C#Cc2cccc(C(=O)O)c2-c2ccc3cc[nH]c3c2)cc1 [Entry 28],1 to 10 µM
7,O=C(O)c1cccc(C#Cc2ccc(OC3CC[S+]([O-])CC3)cc2)c1-c1ccc2cc[nH]c2c1 (stereo not drawn) [Entry 29],10 to 100 µM
8,O=C(O)c1cccc(C#Cc2ccc3c(CN4CCOCC4)c[nH]c3c2)c1-c1ccc2cc[nH]c2c1 [Entry 30],10 to 100 µM
9,CS(=O)(=O)N1CCN(Cc2c[nH]c3cc(C#Cc4cccc(C(=O)O)c4-c4ccc5cc[nH]c5c4)ccc23)CC1 [Entry 31],1 to 10 µM
10,O=C(O)c1cccc(C#Cc2ccc3c(CN4CCS(=O)(=O)CC4)c[nH]c3c2)c1-c1ccc2cc[nH]c2c1 [Entry 32],1 to 10 µM
11,O=C(O)c1cccc(C#Cc2ccc3cc(CN4CCOCC4)[nH]c3c2)c1-c1ccc2cc[nH]c2c1 [Entry 33],10 to 100 µM
12,O=C(O)c1cccc(C#Cc2ccc3cc(CN4CCS(=O)(=O)CC4)[nH]c3c2)c1-c1ccc2cc[nH]c2c1 [Entry 34],1 to 10 µM
13,O=C(O)c1cccc(C#Cc2cc3ccn(CC4CCOCC4)c3cc2F)c1-c1ccc2cc[nH]c2c1 [Entry 35],1 to 10 µM
14,O=C(O)c1cccc(C#Cc2ccc3ccn(CC4CCOCC4)c3c2F)c1-c1ccc2cc[nH]c2c1 [Entry 36],1 to 10 µM
15,O=C(O)c1cccc(C#Cc2ccc3ccn(CC4CCS(=O)(=O)CC4)c3c2F)c1-c1ccc2cc[nH]c2c1 [Entry 37],1 to 10 µM
16,O=C(O)c1cccc(C#Cc2cc3ccn(CC4CCS(=O)(=O)CC4)c3cc2F)c1-c1ccc2cc[nH]c2c1 [Entry 38],1 to 10 µM
17,O=C(O)c1cccc(C#Cc2ccc3c(CN4CCOCC4)c[nH]c3c2F)c1-c1ccc2cc[nH]c2c1 [Entry 39],1 to 10 µM
18,O=C(O)c1cccc(C#Cc2cc3c(CN4CCOCC4)c[nH]c3cc2F)c1-c1ccc2cc[nH]c2c1 [Entry 40],10 to 100 µM
19,O=C(O)c1cccc(C#Cc2ccc(-c3nn[nH]n3)cc2)c1-c1ccc2cc[nH]c2c1 [Entry 41],< 1 µM
20,O=C(O)c1cccc(C#Cc2cccc(-c3nn[nH]n3)c2)c1-c1ccc2cc[nH]c2c1 [Entry 42],< 1 µM
21,O=C(O)c1cccc(C#Cc2ccc(-c3cnco3)cc2)c1-c1ccc2cc[nH]c2c1 [Entry 43],1 to 10 µM

row,Structure (SMILES),IC50
1,O=C(O)c1cccc(C#Cc2ccc(-c3ccc(=O)[nH]n3)cc2)c1-c1ccc2cc[nH]c2c1 [Entry 44],1 to 10 µM
2,COc1cc(C#Cc2cccc(C(=O)O)c2-c2ccc3cc[nH]c3c2)ccc1CN1CCOCC1 [Entry 45],10 to 100 µM
3,O=C(O)c1cccc(C#Cc2ccc(C(=O)N3CCOCC3)c(O)c2)c1-c1ccc2cc[nH]c2c1 [Entry 46],10 to 100 µM
4,COc1cc(C#Cc2cccc(C(=O)O)c2-c2ccc3cc[nH]c3c2)ccc1CN1CCC(N2CCOCC2)CC1 [Entry 47],100 to 1000 µM
5,COc1cc(C#Cc2cccc(C(=O)O)c2-c2ccc3cc[nH]c3c2)ccc1CN1CCC(F)(F)CC1 [Entry 48],1 to 10 µM
6,O=C(O)c1cccc(C#Cc2ccc(C(=O)N3CCC(N4CCOCC4)CC3)c(O)c2)c1-c1ccc2cc[nH]c2c1 [Entry 50],1 to 10 µM
7,O=C(O)c1cccc(C#Cc2ccc(C(=O)N3CCC(F)(F)CC3)c(O)c2)c1-c1ccc2cc[nH]c2c1 [Entry 51],1 to 10 µM
8,CS(=O)(=O)N1CCC(Cc2ccc(C#Cc3cccc(C(=O)O)c3-c3ccc4cc[nH]c4c3)cc2)CC1 [Entry 52],1 to 10 µM
9,O=C(O)c1cccc(C#Cc2ccc(CC3CCN(S(=O)(=O)C(F)(F)F)CC3)cc2)c1-c1ccc2cc[nH]c2c1 [Entry 53],1 to 10 µM
10,CC(C)S(=O)(=O)N1CCC(Cc2ccc(C#Cc3cccc(C(=O)O)c3-c3ccc4cc[nH]c4c3)cc2)CC1 [Entry 54],1 to 10 µM
11,CC(=O)N1CCC(Cc2ccc(C#Cc3cccc(C(=O)O)c3-c3ccc4cc[nH]c4c3)cc2)CC1 [Entry 55],1 to 10 µM
12,CC(=O)N1Cc2ccc(C#Cc3cccc(C(=O)O)c3-c3ccc4cc[nH]c4c3)cc2C1 [Entry 56],1 to 10 µM
13,CC(C)S(=O)(=O)N1Cc2ccc(C#Cc3cccc(C(=O)O)c3-c3ccc4cc[nH]c4c3)cc2C1 [Entry 57],1 to 10 µM
14,CS(=O)(=O)N1CCC(N2CCc3ccc(C#Cc4cccc(C(=O)O)c4-c4ccc5cc[nH]c5c4)cc3C2)C1 (stereo not drawn) [Entry 58],10 to 100 µM
15,CS(=O)(=O)N1CCC(CN2CCc3cc(C#Cc4cccc(C(=O)O)c4-c4ccc5cc[nH]c5c4)ccc3C2)CC1 [Entry 59],10 to 100 µM
16,CS(=O)(=O)N1CC(N2CCc3cc(C#Cc4cccc(C(=O)O)c4-c4ccc5cc[nH]c5c4)ccc3C2)C1 [Entry 60],10 to 100 µM
17,CS(=O)(=O)N1CCC(CN2CCc3cc(C#Cc4cccc(C(=O)O)c4-c4ccc5cc[nH]c5c4)ccc3C2)C1 (stereo not drawn) [Entry 61],10 to 100 µM
18,CS(=O)(=O)N1CCC(CN2CCc3ccc(C#Cc4cccc(C(=O)O)c4-c4ccc5cc[nH]c5c4)cc3C2)C1 (stereo not drawn) [Entry 62],10 to 100 µM
19,CC(=O)N1CCC(CN2CCc3ccc(C#Cc4cccc(C(=O)O)c4-c4ccc5cc[nH]c5c4)cc3C2)C1 (stereo not drawn) [Entry 63],10 to 100 µM
20,CS(=O)(=O)N1CC(CN2CCc3cc(C#Cc4cccc(C(=O)O)c4-c4ccc5cc[nH]c5c4)ccc3C2)C1 [Entry 64],10 to 100 µM
21,CS(=O)(=O)N1CC(CN2CCc3ccc(C#Cc4cccc(C(=O)O)c4-c4ccc5cc[nH]c5c4)cc3C2)C1 [Entry 65],10 to 100 µM
